Assay: Individual human case reports of oral theobromine tablets (appetite, cravings, mood, energy, weight, side effects), with earlier use of commercial diet products
Type: in vivo
Text: They lost 18 lbs., and did report having a headache. No other side effects were reported.
No other side effects were reported.
They lost 9 lbs. in 21 days.
They also took Metabolife 356® made by Metabolife International Inc. which contains a caffeine-ephedrine combination.
A person had been taking Xenadrine EFX (ephedrine free, contains synephrine) to try to stop smoking while losing weight, but with little effect on their appetite and nicotine craving. […] They discontinued use of theobromine over a weekend, and noted that the urge to smoke again became strong. […] They were also exercising, and despite quitting smoking at the same time, lost 4.5 pounds, and reported fitting into clothes that they hadn't been able to wear for several years.

[1] = person, 500 mg. theobromine 4 times per day for 21 days
[2] = person, 2 grams per day for 12 days
[3] = person, 3,250 mg. tablets per day for 10 days
[4] = person, 4, 250 mg. tablets four times per day for 21 days
[5] = person, up to 2 grams daily for 28 days
[6] = smoker, 750 mg. theobromine per day for three weeks

Cn1cnc2c1c(=O)[nH]c(=O)n2C [theobromine, 3,7-dimethylxanthine]
craving for sweets (self-reported) (person with lifelong cravings for sweets, one 250 mg. tablet per day): no craving for such sweets
appetite (self-reported) (person, 500 mg. of Theobromine): appetite suppression
energy (self-reported) (person, 500 mg. of Theobromine): good energy
mood (self-reported) (person, 500 mg. of Theobromine): sense of well being
appetite and food cravings (self-reported) [1]: reduced appetite and food cravings
energy (self-reported) [1]: increased energy without a stimulant high
weight lost [1]: 8 lbs.
weight lost (person, 750 mg. theobromine per day for three weeks, also exercising and quitting smoking): 4.5 pounds
appetite (self-reported) [2]: less appetite
energy, mood and thinking (self-reported) [2]: more energy, improved mood and clearer thinking
weight loss [2]: 5 pound
appetite (self-reported) [3]: reduced appetite
energy (self-reported) [3]: excellent energy
mood (self-reported) [3]: euphoric calmness to their mood
weight lost [3]: 8 lbs.
appetite (self-reported) [4]: reduced appetite
mood and energy (self-reported) [4]: elevated mood, more energy
weight lost [4]: 18 lbs.
appetite (self-reported) [5]: lowered appetite
energy or mood (self-reported) [5]: no energy or mood difference
weight lost (person, up to 2 grams daily, in 21 days): 9 lbs.
appetite (self-reported) [6]: reduced appetite
cravings for chocolate prior to menses (self-reported) [6]: reduction in cravings for chocolate
mood (self-reported) [6]: much calmer and less angry
urge to smoke (self-reported) [6]: loss of the urge to smoke

Reference: patent US20040198754A1, “Composition and method for appetite and craving suppression and mood enhancement” (Pro-Health, Inc., priority 2003, published 2004)
